Results on 27 compounds are retold here after PubChem BioAssay AID720667 (NMMLSC, 2013).

Activity calls are given as the source filed them.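 Rule for the calls: active = over 50% inhibition of phosphorylation of either protein kinase C substrates or the ERK kinase; inactive = both inhibited below 50%.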

The test system of this assay is TALL-104 cells, ERK phosphorylation flow cytometry. In words: inhibitors of MAPKK activity via ERK phosphorylation, late-stage follow-up, mechanism study for lytic granule exocytosis inhibitor project, TALL-104 cells, flow cytometry, CherryPick01 (AID 720667). The following applies: stronger effect = higher value; dose or concentration not given here. (A flow cytometer gives signals particle by particle.)

As to `CC1=C(C)CS(=O)N(S(=O)(=O)c2ccc(Cl)cc2)C1` (configuration not stated), the inhibition is 83.8%.
For the compound `O=CNc1cc(-c2ccsc2)cn2c(-c3ccccc3)cnc12`, the inhibition is -17.6% (inactive).
Then `CCCCC[C@@H](C)N1C[C@H](COCc2ccccc2)Oc2cc(N3CC[C@@H](N(C)C)C3)ccc2S1(=O)=O`, with 37.2% (inactive); and `CC1COCC(C)N1C1=C(Cl)C(=O)c2ccccc2C1=O` (configuration not stated), with -16.4% (inactive); and `COc1ccc(-c2cc(NC=O)c3ncc(-c4cccc(OC)c4)n3c2)cc1`, with -18.8% (inactive).
Consider `CC(C)(c1ccccc1)c1ccc(OCC(O)CNC2CCN(Cc3ccccc3)CC2)cc1` (configuration not stated), for which the inhibition was 36.4% (inactive).
For the compound `CCOC(=O)c1c(NC(=O)COc2ccccc2OCC)sc2c1CC(C)(C)NC2(C)C`, the inhibition was 87.3%.
Take `O=C1CC(Sc2nnnn2-c2ccccc2)C(=O)N1c1cccc(Cl)c1` (configuration not stated): the inhibition was 67.2%.
The figure for `COc1ccc(N2C(=O)CC(Sc3nnc(-c4ccccc4)o3)C2=O)cc1` (configuration not stated) is 17.4% (inactive).
Consider `O=C(CN1C(=O)/C(=C\c2cccc(Br)c2)Oc2ccccc21)NCCCN1CCOCC1`, for which the inhibition was 8% (inactive).
Then `O=C(Cn1sc2ccccc2c1=O)NC12CC3CC(CC(C3)C1)C2`, with 35.6% (inactive); and `O=c1c2ccccc2sn1-c1ccccc1`, with 37.9% (inactive).
The figure for `CCN(CC)CCCNc1ccc(-c2nnc(-c3ccc(OCC(C)C)cc3)o2)cn1` is -22.6% (inactive).
The figure for `CCCCC[C@@H](C)N1C[C@@H](COCc2ccccc2)Oc2cc(N3CC[C@@H](N(C)C)C3)ccc2S1(=O)=O` is 51.1%; for `Cc1cc(N2CCN(c3nc(-c4ccc([N+](=O)[O-])cc4)cs3)CC2)c2ccccc2n1` it is 78.9%.
In the case of `Cc1ccc(Nc2nc(NCc3ccco3)c3ccccc3n2)cc1`, the inhibition was 1.1% (inactive).
The figure for `CCCCC[C@@H](C)N1C[C@@H](COCc2ccccc2)Oc2cc(N3CC[C@H](N(C)C)C3)ccc2S1(=O)=O` is 28% (inactive); for `COc1ccc(-n2sc3ccccc3c2=O)cc1` it is 35% (inactive); for `O=c1c2ccc(F)cc2sn1-c1ccccc1` it is 53.4%.
For `COC(=O)c1c(NC(=O)c2nc3ccccc3s2)sc2c1CC(C)(C)NC2(C)C`, the inhibition was 11.8% (inactive).
For the compound `Cc1ccc(S(=O)(=O)n2ccc3c(OCCOCCNCc4ccc(F)cc4)cccc32)cc1`, the inhibition is -8.2% (inactive).
For `COc1ccccc1CNc1nc(NCc2ccc(C(C)C)cc2)c2sccc2n1`, the inhibition was -14.8% (inactive).
For the compound `N#Cc1c(Nc2ccccc2Cl)s[nH]c1=O`, the inhibition was 66.4%.
Regarding `O=C(Cn1sc2ccccc2c1=O)Nc1ccc(F)cc1`, the inhibition is 18.2% (inactive).
For `CN(C)CCNC(=O)c1ccc(-c2cn3c(-c4ccc(Oc5ccccc5)cc4)cnc3cn2)cc1`, the inhibition is -0.1% (inactive).
The figure for `CC1=NOC(=O)/C1=C/c1ccc(-c2ccc(Cl)cc2)o1` is 40.3% (inactive); for `COc1ccc(-c2cc(NC=O)c3ncc(-c4ccccc4)n3c2)cc1OC` it is -2.1% (inactive).

The term inhibition denotes the relative decrease from the control value, in per cent.
